Test results from US7989466B2, “Methods to inhibit or augment an inflammatory response” (Cambridge Enterprise Limited, priority 1999, dated 2011).
Where two headings read alike, the source gives them in different places. Marks after values point to notes of the source that are not given here. Positions of bridges follow the written chain, without caps; N, C: chain ends. Non-standard residues stand in square brackets, D forms with d. Residues, ends and D or L forms follow the SMILES beside them. No end group written: not given here.

Experiments:
[1] = system: chemokine receptors on THP-1 cells; test: Binding to chemokine receptors on THP-1 cells; set-up: species or system human
Protocol: In general, specific binding is calculated as the amount of labeled agent bound in the absence of cold competitor minus the amount of labeled agent bound in the presence of cold competitor. The amount of specific binding in the presence of varied amounts of cold competitor can be used to determine the association constant for the agent, as well as the number of binding sites on the cell for the agent, using, for example, Scatchard Analysis. The agent may be labeled by radiolabeling (e.g., iodination) or with a suitable biochemical tag (e.g., biotin) or by addition of a photoactivatable crosslinking group. Agents with an association constant lower than 100 μM (i.e., which bind more strongly than an agent with an association constant of 100 μM) and which have at least about 2,500, preferably at least about 10,000, and more preferably greater than 25,000, binding sites per cell for at least one cell type which expresses a chemokine receptor, fall under the scope of this invention. THP-1 cells have at least about 5,000 MCP-1 receptors/cell.
For example, monocytes are suspended in RPMI 1640 medium without bicarbonate containing 0.2% bovine serum albumin and 0.1% azide. Radiolabeled chemokine peptide is incubated with 1-2×10^6 cells, e.g., THP-1 cells, in the presence or absence of increasing concentrations of unlabeled chemokine (MCP-1, MCP-3, MCP-4, RANTES or MIP-1α) for 15 minutes at 37° C. in a 96-well plate in a final volume of 0.2 ml (e.g., PBS+0.5% FCS). After the incubation, 0.5 ml of ice-cold wash buffer (20 mM Tris, 0.5 M NaCl, pH 7.4) is added, and cells are collected onto a polyethyleneimine-treated Whatman GF/C filter using a Brandall cell harvester. Filters are washed with 4 ml of cold wash buffer, and the radioactivity bound to the filters is counted in a γ-counter.
For Scatchard analysis, the absorbance readings at 450 nm were calibrated, by reference to a standard curve in which known amounts of labeled peptide were coupled to derivatized sepharose beads (activated thiol-sepharose 4B; Sigma T8512) via the cysteine residue in each peptide. Briefly, known amounts (1 fmol to 1 pmol) of biotin-labeled peptide were incubated with 1 mg of activated thiol-sepharose beads in 100 μl of PBS at 37° C. for 1 hour. Free activated thiols were then blocked by addition of cysteine to a final concentration of 10 mM. The peptide-conjugated beads were then washed 5 times in PBS and treated exactly as for the cells described above. The absorbance at 450 nm obtained when a known amount of peptide was coupled to the beads was used to construct a standard curve which was used to convert the absorbance readings obtained with cells into number of molecules of labeled peptide which had bound.

[2] = molecular target: T1, Duffy Antigen Receptor for Chemokines (DARC) (Homo sapiens, UniProt Q16570); test: DARC binding: competition with 125I-MCP-1 on red blood cells; conditions: for DUFFY SELECTIVITY, peptide 2 family: ka for binding to red blood cells divided by the ka for binding THP-1 cells
T1 sequence (Q16570 1-336): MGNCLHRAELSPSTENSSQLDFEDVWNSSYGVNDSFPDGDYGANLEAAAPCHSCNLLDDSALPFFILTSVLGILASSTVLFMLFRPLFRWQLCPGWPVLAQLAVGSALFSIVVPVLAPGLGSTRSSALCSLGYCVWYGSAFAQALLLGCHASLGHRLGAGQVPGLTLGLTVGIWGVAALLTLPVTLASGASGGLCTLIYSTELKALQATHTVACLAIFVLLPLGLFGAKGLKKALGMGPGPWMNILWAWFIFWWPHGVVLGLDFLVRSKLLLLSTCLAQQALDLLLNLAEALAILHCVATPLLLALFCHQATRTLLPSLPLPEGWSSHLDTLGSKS

CC[C@@H](C)[C@H]1NC(=O)[C@@H](CCC(N)=O)NC(=O)[C@H](N)CSSC[C@H](C(N)=O)NC(=O)[C@@H](CC(C)C)NC(=O)[C@@H](CC(=O)O)NC(=O)[C@H]2CCCN2C(=O)[C@@H](CCCCN)NC(=O)[C@@H](CCC(N)=O)NC(=O)[C@@H](CCCCN)NC(=O)[C@@H](Cc2c[nH]c3ccccc23)NC1=O (H-[dC][dQ][dI][dW][dK][dQ][dK][dP][dD][dL][dC]-NH2; disulfide 1-11; N-terminus assumed)
association constant for chemokine receptors on THP-1 cells [1]: 100 to 500 nM
number of binding sites per cell, THP-1 cells [1]: about 150,000 per cell
Kd [2]: 90 µM

NCCCC[C@H](NC(=O)[C@H](CCC(N)=O)NC(=O)[C@@H](N)CCCCN)C(=O)O [KQK]
number of binding sites per cell, THP-1 cells [1]: about 15,000 per cell
association constant for chemokine receptors on THP-1 cells ([1]; range printed with mixed units): 500 nM-1 μM

EICADPKQKWVQ [peptide 3(1-12)[MCP-1]]
number of binding sites per cell, THP-1 cells [1]: 1000 per cell
association constant (ka) for binding to THP-1 cells ([1]; listed as Peptide 3): about 10 μM
association constant (ka) for binding to THP-1 cells ([1]; listed as peptide 3): 7 µM
Kd ([1]; read-out: affinity constant for binding to THP-1 cells in the presence of 100 μM peptide 2): 8 µM
DUFFY SELECTIVITY (DARC specificity ratio) ([2]; estimated ka for binding to red blood cells divided by average inhibitory ED50 versus each of the chemokines): 1.0

SYRRITSSKCPKEAV [peptide 2(1-15)[MCP-1]]
AVERAGE ED50, peptide 2 family: estimated ka for binding to THP-1 cells [1]: 2^e μM
association constant (ka) for binding to THP-1 cells [1]: 2 µM
number of binding sites per cell, THP-1 cells [1]: 130,000 per cell
association constant for chemokine receptors on THP-1 cells ([1]; listed as peptide 2): 250 nM
association constant for chemokine receptors on THP-1 cells ([1]; listed as peptide 2(1-15)[MCP1]): 300 nM
Kd ([2]; association (affinity) constant for DARC, red blood cells): 100 µM
Kd ([2]; association constant / affinity for DARC, red blood cells): < 0.5 µM
DUFFY SELECTIVITY, peptide 2 family [2]: 0.1-0.2
DUFFY SELECTIVITY, peptide 2 family ([2]; listed as Pep2[MCP1]): 0.18^d
